Data on one compound can be found in patent publication US20070264679A1, “Method for analyzing the activity of lipoxygenase using a water-soluble substrate” (Chungnam National University Industry Collaboration …, priority 2006, published 2007).

In experiment [1] the target is T1, Rabbit reticulocyte 15-lipoxygenase (reticulocyte LOX) (Oryctolagus cuniculus, UniProt P12530).
T1 construct: purchased Biomol Inc. (Plymouth Meeting, Pa., USA)
T1 sequence (P12530 1-663): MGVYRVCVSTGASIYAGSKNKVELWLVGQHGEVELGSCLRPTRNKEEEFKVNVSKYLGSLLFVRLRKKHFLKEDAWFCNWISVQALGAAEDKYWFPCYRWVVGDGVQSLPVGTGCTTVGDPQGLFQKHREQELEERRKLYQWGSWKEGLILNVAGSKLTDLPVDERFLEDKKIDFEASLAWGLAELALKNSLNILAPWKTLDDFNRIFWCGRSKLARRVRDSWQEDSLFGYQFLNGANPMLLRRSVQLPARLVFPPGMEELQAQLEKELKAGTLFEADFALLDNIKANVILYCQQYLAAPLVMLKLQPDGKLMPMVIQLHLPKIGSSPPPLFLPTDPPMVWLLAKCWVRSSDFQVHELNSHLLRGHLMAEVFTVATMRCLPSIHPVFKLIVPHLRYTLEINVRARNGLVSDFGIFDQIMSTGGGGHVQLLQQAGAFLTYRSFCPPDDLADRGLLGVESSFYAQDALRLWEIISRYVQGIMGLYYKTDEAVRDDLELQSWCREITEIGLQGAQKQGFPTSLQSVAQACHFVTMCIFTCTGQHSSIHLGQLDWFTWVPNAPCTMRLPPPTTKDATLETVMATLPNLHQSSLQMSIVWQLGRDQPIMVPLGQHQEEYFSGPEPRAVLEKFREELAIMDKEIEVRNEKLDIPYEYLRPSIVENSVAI
Put plainly: Oxygenation of arachidonoyl lysophospholipids by reticulocyte LOX. It is filed as biochemical. Particulars: reticulocyte LOX 2 units/ml, 50 mM phosphate buffer pH 7.4. How it is done:
(§1) Activities of various LOXs were monitored by measuring the increase in absorbance at 234 nm due to the formation of hydroperoxide (ε234=25,000 M^−1 cm^−1) at 25° C. as described before (Smith et al, J. Biol. Chem. 247 (1972) 1038-1047). One unit is defined as the amount of LOXs that can produce one nanomole of conjugated diene per min. The reaction mixture (500 μl) included reticulocyte LOX (2 units/ml) in 50 mM phosphate buffer (pH 7.4), porcine leukocyte LOX (1 unit/ml) in 100 mM phosphate buffer (pH 7.5) containing 5 mM EDTA and 0.03% Tween 20, or soybean LOX-1 (2.5 units/ml) in 50 mM borax buffer (pH 9.0) at 25° C. The reactions were started by including each substrate (100 μM) into the above reaction mixture.
(§2) Reticulocyte LOX (2 units/ml), leukocyte LOX (1 units/ml) or soybean LOX-1 (2.5 units/ml) was incubated with each arachidonoyl derivative substrate of various concentrations as described above. The values of kinetic parameters were obtained according to Lineweaver Burke plot analyses as described before (Barroso et al, J. Chromatogr. B. Analyt. Technol. Biomed. Life. Sci. 814 (2005) 21-28).
It is noteworthy that the efficacy of arachidonoyl-lysoPC as a substrate for leukocyte LOX was approximately 10-fold greater than that of arachidonic acid. In an additional study, the oxygenation of arachidonoyl-lysoPC or arachidonoyl-lysoPA by reticulocyte LOX was examined. […]

Another experiment addresses T2, leukocyte LOX (Sus scrofa, UniProt P16469).
T2 construct: purchased Cayman Chemical Co. (Ann Arbor, Mich., USA)
T2 sequence (P16469 1-663): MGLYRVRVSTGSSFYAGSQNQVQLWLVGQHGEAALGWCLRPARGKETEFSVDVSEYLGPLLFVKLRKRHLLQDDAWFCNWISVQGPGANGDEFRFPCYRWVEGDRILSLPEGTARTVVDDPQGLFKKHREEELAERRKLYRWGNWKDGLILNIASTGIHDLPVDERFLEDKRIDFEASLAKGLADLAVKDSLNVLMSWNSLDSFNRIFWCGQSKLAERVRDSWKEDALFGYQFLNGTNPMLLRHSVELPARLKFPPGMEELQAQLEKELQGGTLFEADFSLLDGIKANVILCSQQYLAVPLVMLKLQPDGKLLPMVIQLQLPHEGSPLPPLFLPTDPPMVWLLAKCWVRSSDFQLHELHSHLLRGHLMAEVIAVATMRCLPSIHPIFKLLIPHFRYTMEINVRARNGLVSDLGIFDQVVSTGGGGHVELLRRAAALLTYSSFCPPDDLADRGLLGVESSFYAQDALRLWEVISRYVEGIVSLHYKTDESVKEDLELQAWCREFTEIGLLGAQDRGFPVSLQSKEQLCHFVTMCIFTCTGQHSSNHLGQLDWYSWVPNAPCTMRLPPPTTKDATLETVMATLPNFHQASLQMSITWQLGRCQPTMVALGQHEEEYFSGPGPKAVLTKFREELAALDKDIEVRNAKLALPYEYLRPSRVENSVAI
Put plainly: Position specificity of leukocyte LOX in oxygenation of arachidonoyl-lysoPC (SP-HPLC of HETE). It is filed as biochemical, porcine. As to conditions: predominant product 12-HETE. How it is done: After 30 min incubation, the reaction was stopped by the addition of sodium borohydride to reduce hydroperoxy compounds to their corresponding alcohols, which were subjected to alkaline hydrolysis. After 30 min incubation at 60° C. under N2, the mixture was subjected to lipid extraction as described previously (Leon et al, J. Agric. Food. Chem. 52 (2004) 1207-1211). Finally, the lipid extract was analyzed by SP-HPLC system equipped with silica gel column (4 μm, 150×3.9 mm, Waters, USA), which was eluted (1 ml/min) with n-hexane/isopropyl alcohol/acetic acid (100:1:0.05). The identification of hydrolysis products was carried out in comparison with each standard compound, 15-hydroxyeicosatetraenoic acid (HETE) or 12-HETE.
To establish the position of oxygenation of arachidonoyl chain in arachidonoyl-lysoPC, hydroperoxyeicosatetraenoyl-lysoPC was subjected to NaBH4 reduction, followed by saponification in alkaline medium, to afford hydroxyeicosatetraenoic acid, which was further purified by SP-HPLC.

For experiment [2], the target named is T3, Leukocyte 12-lipoxygenase (leukocyte LOX) (Sus scrofa, UniProt P16469).
T3 construct: purchased Cayman Chemical Co. (Ann Arbor, Mich., USA)
T3 sequence (P16469 1-663): T2 sequence (P16469 1-663)
Put plainly: Kinetics of oxygenation of arachidonic acid or arachidonoyl-lysophospholipids by leukocyte LOX. As to conditions: for Vm: 0.03% Tween 20. Type of experiment: biochemical, porcine. How it is done: as §1, §2

The structures appear in SMILES notation.

A word on the Km: it is the concentration of substrate that gives half-maximal velocity. With `CCCCC/C=C\C/C=C\C/C=C\C/C=C\CCCC(=O)OCC(O)COP(=O)([O-])OCC[N+](C)(C)C` (stereo not drawn) [Arachidonoyl-lysoPC, 1-Arachidonoyl lysophosphatidylcholine], the “Vm/Km value in reticulocyte LOX-catalyzed oxygenation compared with arachidonic acid” value in experiment [1] is “somewhat greater than that of arachidonic acid”. Further, the “minor product behaving like 15-HETE in leukocyte LOX-catalyzed oxygenation” value on leukocyte LOX is reported as no more than 5%. In addition, the “efficacy as a substrate for leukocyte LOX (Vm/Km) relative to arachidonic acid” value in experiment [2] (greater than that of arachidonic acid) is “approximately 10 fold”. Moreover, the Vm in experiment [2] (leukocyte LOX 1 unit/ml, 100 mM phosphate buffer pH 7.5, 5 mM EDTA) is listed as 199.8 ± 16.7 units/mg; in experiment [2] (leukocyte LOX 1 unit/ml, 100 mM phosphate buffer pH 7.5, 5 mM EDTA, listed as arachidonoyl-lysoPC), 199.8 units/mg. For the same compound, in experiment [2] (leukocyte LOX 1 unit/ml, 100 mM phosphate buffer pH 7.5, 5 mM EDTA, 0.03% Tween 20, 25° C.), the Km came to 2.6 µM.
